This data set can be described thus: Intrinsic Dissolution Rate (IDR) at pH 6.8 of the cyclodextrin complexes (Sotax intrinsic dissolution assembly, USP<1087>). Format: physicochemical. The following applies: 100 rpm. As for the experimental part:
Data: Intrinsic Dissolution Rate (IDR) at pH 6.8 of the Cyclodextrin Complexes
The intrinsic dissolution rate was measured with a Sotax intrinsic dissolution assembly according to the procedure described in USP<1087>. The 8 mm diameter disc was formed from approximately 150 mg of cyclodextrin complex and compressed at a force of 5 tons for 30 seconds using a benchtop hydraulic press. The dissolution media was 1000 mL of water containing 31.6 mL of 1 M hydrochloric acid solution and 2.0 g of sodium chloride, which was adjusted to pH 6.8 with Tris/Acetate buffer, the dissolution volume was 900 mL at 37° C. and the rotating speed was 100 rpm. Detection was performed by flow through UV sampling every 2 minutes for 1 hour at 245 nm with a 1 cm path length.

For `CN(CCOc1ccc(CC2SC(=O)NC2=O)cc1)c1ccccn1.O=C(O)/C=C\C(=O)O` (centres unmarked) [Maleate salt of Compound 1, 5-[4-[2-(N-methyl-N-(2-pyridyl)amino)ethoxy]benzyl]thiazolidine-2,4-dione, maleate salt], the “IDR relative to the Maleate salt of Compound 1” value (pH 6.8, 37° C., ratio to the maleate salt) stood at 1. The molecule further gave an IDR (pH 6.8 dissolution media, 900 mL, 37° C., 8 mm disc, UV 245 nm) of 0.057 mg/min/cm^2.
